In ChEMBL document CHEMBL3875180, “8-Thioalkyl-adenosine derivatives inhibit Listeria monocytogenes NAD kinase through a novel binding mode” (Eur J Med Chem, 2016):

Key:
[1] = Inhibition of Staphylococcus aureus COL NADK S132P mutant expressed in Escherichia coli BL21(DE3) assessed as reduction in NADP production using NAD as substrate by glucose-6-phosphate dehydrogenase coupled enzyme based spectrophotometric method; set-up: species or system Staphylococcus aureus subsp. aureus COL
NAD kinase [2] = molecular target: T1, NAD kinase (Staphylococcus aureus (strain COL), UniProt Q5HH78); experiment: (§1) Inhibition of Staphylococcus aureus COL NADK expressed in Escherichia coli BL21(DE3) assessed as reduction in NADP production using NAD as substrate by glucose-6-phosphate dehydrogenase coupled enzyme based spectrophotometric method; set-up: species or system Staphylococcus aureus subsp. aureus COL
T1 sequence (Q5HH78 whole entry): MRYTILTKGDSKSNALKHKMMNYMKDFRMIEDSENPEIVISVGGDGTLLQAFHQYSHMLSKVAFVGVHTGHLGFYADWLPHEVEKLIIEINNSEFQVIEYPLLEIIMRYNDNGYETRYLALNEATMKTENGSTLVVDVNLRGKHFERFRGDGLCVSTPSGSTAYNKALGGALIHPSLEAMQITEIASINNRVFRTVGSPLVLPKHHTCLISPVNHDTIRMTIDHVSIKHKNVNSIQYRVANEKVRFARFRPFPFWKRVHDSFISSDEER

[3] = Cytotoxicity against human MRC5 cells up to 1 x 10^-4M; format: toxicity, cell-based
[4] = Competitive inhibition of Listeria monocytogenes C-terminal His6-tagged NADK1 expressed in Escherichia coli BL21(DE3) assessed as reduction in NADP production using varying levels of NAD as substrate by glucose-6-phosphate dehydrogenase coupled enzyme based spectrophotometric method
NAD kinase [5] = molecular target: T2, NAD kinase (Homo sapiens, UniProt O95544); experiment: Inhibition of human NADK expressed in Escherichia coli BL21(DE3) assessed as reduction in NADP production using NAD as substrate by glucose-6-phosphate dehydrogenase coupled enzyme based spectrophotometric method
T2 sequence (O95544 whole entry): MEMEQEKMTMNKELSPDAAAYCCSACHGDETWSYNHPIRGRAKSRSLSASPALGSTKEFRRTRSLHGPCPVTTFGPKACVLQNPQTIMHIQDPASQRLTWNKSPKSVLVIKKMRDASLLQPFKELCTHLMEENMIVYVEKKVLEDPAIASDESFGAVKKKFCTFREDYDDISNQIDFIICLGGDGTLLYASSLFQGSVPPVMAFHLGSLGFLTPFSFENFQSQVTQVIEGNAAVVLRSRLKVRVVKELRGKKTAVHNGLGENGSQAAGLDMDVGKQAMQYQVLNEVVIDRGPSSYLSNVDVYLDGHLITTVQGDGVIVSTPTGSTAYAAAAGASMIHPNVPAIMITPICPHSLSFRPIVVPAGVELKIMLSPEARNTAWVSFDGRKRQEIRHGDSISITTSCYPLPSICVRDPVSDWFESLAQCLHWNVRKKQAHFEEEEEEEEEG

[6] = Inhibition of Bacillus subtilis NADK1 S132P mutant expressed in Escherichia coli BL21(DE3) assessed as reduction in NADP production using NAD as substrate by glucose-6-phosphate dehydrogenase coupled enzyme based spectrophotometric method
[7] = as §1, with “of Listeria monocytogenes C-terminal His6-tagged NADK1 harboring” for “of”, “NADK segment 1” for “NADK”
[8] = Inhibition of Bacillus subtilis NADK1 harboring Listeria monocytogenes NADK1 segment 2 expressed in Escherichia coli BL21(DE3) assessed as reduction in NADP production using NAD as substrate by glucose-6-phosphate dehydrogenase coupled enzyme based spectrophotometric method
[9] = Inhibition of Bacillus subtilis NADK1 harboring Listeria monocytogenes NADK1 segment 1 expressed in Escherichia coli BL21(DE3) assessed as reduction in NADP production using NAD as substrate by glucose-6-phosphate dehydrogenase coupled enzyme based spectrophotometric method
[10] = Inhibition of Listeria monocytogenes C-terminal His6-tagged NADK1 P132S mutant expressed in Escherichia coli BL21(DE3) assessed as reduction in NADP production using varying levels of NAD as substrate by glucose-6-phosphate dehydrogenase coupled enzyme based spectrophotometric method
[11] = Inhibition of human NADK harboring Listeria monocytogenes NADK1 segment 1 expressed in Escherichia coli BL21(DE3) assessed as reduction in NADP production using NAD as substrate by glucose-6-phosphate dehydrogenase coupled enzyme based spectrophotometric method
Bacillus subtilis = experiment: Inhibition of Bacillus subtilis NADK1 expressed in Escherichia coli BL21(DE3) assessed as reduction in NADP production at 300 uM using NAD as substrate by glucose-6-phosphate dehydrogenase coupled enzyme based spectrophotometric method relative to control

With `[N-]=[N+]=NC[C@H]1O[C@@H](n2c(SCC(=O)NCCc3cccc(Br)c3)nc3c(N)ncnc32)[C@H](O)[C@@H]1O` the Ki [1] was 170 µM, the IC50 (NAD kinase [2]) was greater than 400 µM and the Activity [3] was “Non-Toxic”. It also gave a Ki [4] of 1 µM, a Ki (NAD kinase [5]) of 330 µM and a Ki [6] of 100 µM. It also gave a Ki [7] of 2.5 µM, a Ki [8] of 30 µM and a Ki [9] of 55 µM. It also gave a Ki [10] of 10 µM, a Ki [11] of 75 µM and an inhibition (Bacillus subtilis) of 15%.
